Measurements published in ChEMBL document CHEMBL5543144, “Discovery of a Novel Potent Tetrazole Antifungal Candidate with High Selectivity and Broad Spectrum” (J Med Chem, 2024).
Converted amounts (≈) assume the structure as drawn.

Columns and labels:
Assay type in all cases: functional
Candida tropicalis = test: Antifungal activity against Candida tropicalis 2718 assessed as inhibition of fungal growth incubated for 24 hrs by CLSI protocol based microbroth dilution method
Pichia kudriavzevii = test: Antifungal activity against Candida krusei 4946 assessed as inhibition of fungal growth incubated for 24 hrs by CLSI protocol based microbroth dilution method
Cryptococcus neoformans = test: Antifungal activity against Cryptococcus neoformans H99 assessed as inhibition of fungal growth incubated for 72 hrs by CLSI protocol based microbroth dilution method
Aspergillus fumigatus = test: Antifungal activity against Aspergillus fumigatus 7544 assessed as inhibition of fungal growth incubated for 48 hrs by CLSI protocol based microbroth dilution method
Candida parapsilosis = test: Antifungal activity against Candida parapsilosis 22019 assessed as inhibition of fungal growth incubated for 24 hrs by CLSI protocol based microbroth dilution method; conditions: Lodderomyces parapsilosis
Candida albicans = test: Antifungal activity against Candida albicans SC5314 assessed as inhibition of fungal growth incubated for 24 hrs by CLSI protocol based microbroth dilution method
Nakaseomyces glabratus = test: Antifungal activity against Candida glabrata 537 assessed as inhibition of fungal growth incubated for 48 hrs by CLSI protocol based microbroth dilution method
[Candida] auris [1] = Antifungal activity against fluconazole resistant Candida auris 791 assessed as inhibition of fungal growth incubated for 48 hrs by CLSI protocol based microbroth dilution method; conditions: Candidozyma auris
[Candida] auris [2] = Antifungal activity against fluconazole resistant Candida auris D12 assessed as inhibition of fungal growth incubated for 48 hrs by CLSI protocol based microbroth dilution method; conditions: Candidozyma auris
[Candida] auris [3] = Antifungal activity against fluconazole resistant Candida auris 789 assessed as inhibition of fungal growth incubated for 48 hrs by CLSI protocol based microbroth dilution method; conditions: Candidozyma auris
[Candida] auris [4] = Antifungal activity against fluconazole resistant Candida auris 888 assessed as inhibition of fungal growth incubated for 48 hrs by CLSI protocol based microbroth dilution method; conditions: Candidozyma auris
[Candida] auris [5] = Antifungal activity against fluconazole resistant Candida auris 887 assessed as inhibition of fungal growth incubated for 48 hrs by CLSI protocol based microbroth dilution method; conditions: Candidozyma auris
[Candida] auris [6] = Antifungal activity against fluconazole resistant Candida auris BS12372 assessed as inhibition of fungal growth incubated for 48 hrs by CLSI protocol based microbroth dilution method; conditions: Candidozyma auris

| MIC50 (Candida tropicalis) [µg/mL] | MIC50 (Pichia kudriavzevii) [µg/mL] | MIC50 (Cryptococcus neoformans) [µg/mL] | MIC50 (Aspergillus fumigatus) [µg/mL] | MIC50 (Candida parapsilosis) [µg/mL] | MIC50 (Candida albicans) [µg/mL] | MIC50 (Nakaseomyces glabratus) [µg/mL] | Compound | MIC50 ([Candida] auris [1]) [µg/mL] | MIC50 ([Candida] auris [2]) [µg/mL] | MIC50 ([Candida] auris [3]) [µg/mL] | MIC50 ([Candida] auris [4]) [µg/mL] | MIC50 ([Candida] auris [5]) [µg/mL] | MIC50 ([Candida] auris [6]) [µg/mL] |
| --- | --- | --- | --- | --- | --- | --- | --- | --- | --- | --- | --- | --- | --- |
| < 0.008 | 0.125 (≈ 0.289 µM) | < 0.008 | 0.25 (≈ 0.579 µM) | < 0.008 | < 0.008 | < 0.008 | C[C@@H](n1ncc2cc(Cl)ccc2c1=O)[C@](O)(Cn1cncn1)c1cc(F)ccc1F | – | – | – | – | – | – |
| < 0.008 | 0.063 (≈ 0.132 µM) | < 0.008 | 1 (≈ 2.1 µM) | < 0.008 | < 0.008 | 0.016 (≈ 0.0336 µM) | C[C@@H](n1ncc2cc(Br)ccc2c1=O)[C@](O)(Cn1cncn1)c1ccc(F)cc1F | – | – | – | – | – | – |
| 1 (≈ 2.01 µM) | > 64 | 4 (≈ 8.03 µM) | > 64 | 1 (≈ 2.01 µM) | 0.5 (≈ 1 µM) | 1 (≈ 2.01 µM) | C[C@@H](n1ncc2cn(-c3ccc(Cl)cc3)nc2c1=O)[C@](O)(Cn1cncn1)c1ccc(F)cc1F | – | – | – | – | – | – |
| 0.5 (≈ 0.913 µM) | > 64 | > 64 | > 64 | 0.5 (≈ 0.913 µM) | 0.5 (≈ 0.913 µM) | 1 (≈ 1.83 µM) | C[C@@H](n1ncc2cn(-c3ccc(OC(F)(F)F)cc3)nc2c1=O)[C@](O)(Cn1cncn1)c1ccc(F)cc1F | – | – | – | – | – | – |
| 0.25 (≈ 0.47 µM) | > 64 | > 64 | > 64 | 0.25 (≈ 0.47 µM) | 0.125 (≈ 0.235 µM) | 0.5 (≈ 0.939 µM) | C[C@@H](n1ncc2cn(-c3ccc(Cl)c(Cl)c3)nc2c1=O)[C@](O)(Cn1cncn1)c1ccc(F)cc1F | – | – | – | – | – | – |
| 1 (≈ 2.05 µM) | > 64 | 8 (≈ 16.4 µM) | > 64 | 1 (≈ 2.05 µM) | 0.5 (≈ 1.02 µM) | 0.5 (≈ 1.02 µM) | C[C@@H](n1ncc2cn(-c3ccc(C#N)cc3)nc2c1=O)[C@](O)(Cn1cncn1)c1ccc(F)cc1F | – | – | – | – | – | – |
| 0.5 (≈ 0.941 µM) | 16 (≈ 30.1 µM) | 1 (≈ 1.88 µM) | > 64 | 0.5 (≈ 0.941 µM) | 0.25 (≈ 0.47 µM) | 0.5 (≈ 0.941 µM) | C[C@@H](n1ncc2cn(-c3ccc(C(F)(F)F)cc3)nc2c1=O)[C@](O)(Cn1cncn1)c1ccc(F)cc1F | – | – | – | – | – | – |
| 0.25 (≈ 0.501 µM) | > 64 | > 64 | > 64 | 1 (≈ 2 µM) | 0.5 (≈ 1 µM) | 1 (≈ 2 µM) | C[C@@H](n1ncc2cn(-c3ccc(F)c(F)c3)nc2c1=O)[C@](O)(Cn1cncn1)c1ccc(F)cc1F | – | – | – | – | – | – |
| 0.5 (≈ 0.969 µM) | > 64 | > 64 | > 64 | 2 (≈ 3.88 µM) | 0.5 (≈ 0.969 µM) | 8 (≈ 15.5 µM) | C[C@@H](n1ncc2cn(-c3ccc(F)c(Cl)c3)nc2c1=O)[C@](O)(Cn1cncn1)c1ccc(F)cc1F | – | – | – | – | – | – |

Second part, the compound before the results:

| Compound | MIC50 (Candida tropicalis) [µg/mL] | MIC50 (Pichia kudriavzevii) [µg/mL] | MIC50 (Cryptococcus neoformans) [µg/mL] | MIC50 (Aspergillus fumigatus) [µg/mL] | MIC50 (Candida parapsilosis) [µg/mL] | MIC50 (Candida albicans) [µg/mL] | MIC50 (Nakaseomyces glabratus) [µg/mL] | MIC50 ([Candida] auris [1]) [µg/mL] | MIC50 ([Candida] auris [2]) [µg/mL] | MIC50 ([Candida] auris [3]) [µg/mL] | MIC50 ([Candida] auris [4]) [µg/mL] | MIC50 ([Candida] auris [5]) [µg/mL] | MIC50 ([Candida] auris [6]) [µg/mL] |
| --- | --- | --- | --- | --- | --- | --- | --- | --- | --- | --- | --- | --- | --- |
| C[C@@H](n1ccc2cc(Cl)ccc2c1=O)[C@](O)(Cn1cncn1)c1cc(F)ccc1F | < 0.008 | 0.063 (≈ 0.146 µM) | < 0.008 | 0.25 (≈ 0.58 µM) | < 0.008 | < 0.008 | < 0.008 | – | – | – | – | – | – |
| C[C@@H](n1cnc2cc(Cl)ccc2c1=O)[C@](O)(Cn1cnnn1)c1ccc(F)cc1F | < 0.008 | 0.25 (≈ 0.578 µM) | 2 (≈ 4.62 µM) | 8 (≈ 18.5 µM) | 0.063 (≈ 0.146 µM) | < 0.008 | 0.031 (≈ 0.0716 µM) | 32 (≈ 73.9 µM) | 8 (≈ 18.5 µM) | 16 (≈ 37 µM) | 16 (≈ 37 µM) | 32 (≈ 73.9 µM) | 8 (≈ 18.5 µM) |
| C[C@@H](n1ccc2ccccc2c1=O)[C@](O)(Cn1cncn1)c1ccc(F)cc1F | 0.016 (≈ 0.0404 µM) | 0.125 (≈ 0.315 µM) | 0.016 (≈ 0.0404 µM) | 0.5 (≈ 1.26 µM) | 0.016 (≈ 0.0404 µM) | < 0.008 | 0.016 (≈ 0.0404 µM) | – | – | – | – | – | – |
| C[C@@H](n1cnc2cc(F)ccc2c1=O)[C@](O)(Cn1cnnn1)c1ccc(F)cc1F | 0.25 (≈ 0.6 µM) | > 4 | 4 (≈ 9.61 µM) | 16 (≈ 38.4 µM) | 0.5 (≈ 1.2 µM) | < 0.008 | 0.25 (≈ 0.6 µM) | – | – | – | – | – | – |
| C[C@@H](n1ccc2cc(OC(F)(F)F)ccc2c1=O)[C@](O)(Cn1cncn1)c1ccc(F)cc1F | < 0.008 | 0.063 (≈ 0.131 µM) | < 0.008 | 1 (≈ 2.08 µM) | < 0.008 | < 0.008 | < 0.008 | – | – | – | – | – | – |
| COc1ccc2c(=O)n([C@H](C)[C@](O)(Cn3cncn3)c3ccc(F)cc3F)ccc2c1 | < 0.008 | 0.125 (≈ 0.293 µM) | < 0.008 | 1 (≈ 2.35 µM) | < 0.008 | < 0.008 | < 0.008 | – | – | – | – | – | – |
